According to patent publication US20240246964A1 (Arbutus Biopharma Corporation, priority 2021, published 2024):

Legend:
[1] = target: PD-L1 His protein / PD-1 Fc protein (Homo sapiens (Human), UniProt Q9NZQ7); experiment: HTRF Assay (PD-1/PD-L1 interaction); assay type: binding; details: PD-L1 His 6 nM, PD-1 Fc 6 nM
human PD-L1 = human PD-L1 (Homo sapiens (Human), UniProt Q9NZQ7); experiment: T cell activation luciferase reporter cell culture system (T Cell Activation Assay); assay type: cell-based; details: luciferase reporter assay; PD-L1 aAPC/CHO-K1 cells with PD-1 effector Jurkat T cells
Chain of human PD-L1 (Q9NZQ7 19-290): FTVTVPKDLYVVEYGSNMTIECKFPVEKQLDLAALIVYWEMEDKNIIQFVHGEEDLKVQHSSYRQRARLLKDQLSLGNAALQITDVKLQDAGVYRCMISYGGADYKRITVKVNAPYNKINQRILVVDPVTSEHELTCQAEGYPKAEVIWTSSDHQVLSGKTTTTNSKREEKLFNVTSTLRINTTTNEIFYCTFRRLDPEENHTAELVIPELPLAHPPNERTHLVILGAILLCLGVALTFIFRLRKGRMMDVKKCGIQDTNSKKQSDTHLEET

Chain of PD-L1 His protein / PD-1 Fc protein (Q9NZQ7 19-238): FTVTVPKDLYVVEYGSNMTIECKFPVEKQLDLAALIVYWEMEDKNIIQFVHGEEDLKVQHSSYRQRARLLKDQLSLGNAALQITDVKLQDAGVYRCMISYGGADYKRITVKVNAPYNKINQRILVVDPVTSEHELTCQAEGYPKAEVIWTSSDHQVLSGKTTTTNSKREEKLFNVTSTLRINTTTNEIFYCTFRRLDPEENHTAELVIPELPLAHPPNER

SMILES	IC50 [1] [nM]	EC50 (human PD-L1) [nM]
COc1nc(-c2cccc(-c3ccnc(-c4cc5c(=O)n(C)c(CNC[C@@H]6CCC(=O)N6)nn5c4)c3Cl)c2Cl)ccc1CNC[C@@H]1CCC(=O)N1 [Compound 103, 6-(3-chloro-4-(2-chloro-3-(6-methoxy-5-(((((S)-5-oxopyrrolidin-2-yl)methyl)amino)methyl)pyridin-2-yl)phenyl)pyridin-2-yl)-3-methyl-2-(((((S)-5-oxopyrrolidin-2-yl)methyl)amino)methyl)pyrrolo[2,1-f][1,2,4]triazin-4(3H)-one]	0.7	304
COc1cc(-c2nccc(-c3cccc(-c4ccc(C5=NCCN5)c(OC)n4)c3Cl)c2Cl)ccc1C1=NCCN1 [Compound 106, 3-chloro-4-(2-chloro-3-(5-(4,5-dihydro-1H-imidazol-2-yl)-6-methoxypyridin-2-yl)phenyl)-2-(4-(4,5-dihydro-1H-imidazol-2-yl)-3-methoxyphenyl)pyridine]	1.4	123
COc1nc(-c2cccc(-c3ccnc(-c4cc5c(=O)n(C)c(CN6CC(C)(O)C6)nn5c4)c3Cl)c2Cl)ccc1CNC[C@@H]1CCC(=O)N1 [Compound 110, (S)-6-(3-chloro-4-(2-chloro-3-(6-methoxy-5-((((5-oxopyrrolidin-2-yl)methyl)amino)methyl)pyridin-2-yl)phenyl)pyridin-2-yl)-2-((3-hydroxy-3-methylazetidin-1-yl)methyl)-3-methylpyrrolo[2,1-f][1,2,4]triazin-4(3H)-one]	0.9	60.5
COc1nc(-c2cccc(-c3ccnc(-c4cc5c(=O)n(C)c(CNC(C)C)nn5c4)c3Cl)c2Cl)ccc1CNC[C@@H]1CCC(=O)N1 [Compound 111, (S)-6-(3-chloro-4-(2-chloro-3-(6-methoxy-5-((((5-oxopyrrolidin-2-yl)methyl)amino)methyl)pyridin-2-yl)phenyl)pyridin-2-yl)-2-((isopropylamino)methyl)-3-methylpyrrolo[2,1-f][1,2,4]triazin-4(3H)-one]	2.2	263
COc1cc(-c2nccc(-c3cccc(-c4ccc(CNC[C@@H]5CCC(=O)N5)c(OC)n4)c3Cl)c2Cl)cc(C)c1CNC[C@H](C)O [Compound 114, (S)-5-((((6-(2-chloro-3-(3-chloro-2-(4-((((S)-2-hydroxypropyl)amino)methyl)-3-methoxy-5-methylphenyl)pyridin-4-yl)phenyl)-2-methoxypyridin-3-yl)methyl)amino)methyl)pyrrolidin-2-one]	0.9	81.2
COc1cc(-c2nccc(-c3cccc(-c4ccc(CNC[C@@H]5CCC(=O)N5)c(OC)n4)c3Cl)c2Cl)cc(C)c1CNC[C@@H]1CCC(=O)N1 [Compound 115, (S)-5-((((6-(2-chloro-3-(3-chloro-2-(3-methoxy-5-methyl-4-(((((S)-5-oxopyrrolidin-2-yl)methyl)amino)methyl)phenyl)pyridin-4-yl)phenyl)-2-methoxypyridin-3-yl)methyl)amino)methyl)pyrrolidin-2-one]	1.1	36.3
COc1nc(-c2cccc(-c3ccnc(-c4ccc5c(c4)CNC5)c3Cl)c2Cl)ccc1CNC[C@@H]1CCC(=O)N1 [Compound 116, (S)-5-((((6-(2-chloro-3-(3-chloro-2-(isoindolin-5-yl)pyridin-4-yl)phenyl)-2-methoxypyridin-3-yl)methyl)amino)methyl)pyrrolidin-2-one]	0.9	64.9
COc1cc(-c2nccc(-c3cccc(-c4ccc(CNC[C@@H]5CCC(=O)N5)c(OC)n4)c3Cl)c2Cl)cc(C)c1CN(C)C[C@@H]1CCC(=O)N1 [Compound 117, (S)-5-((((6-(2-chloro-3-(3-chloro-2-(3-methoxy-5-methyl-4-((methyl(((S)-5-oxopyrrolidin-2-yl)methyl)amino)methyl)phenyl)pyridin-4-yl)phenyl)-2-methoxypyridin-3-yl)methyl)amino)methyl)pyrrolidin-2-one]	1.3	30.7
COc1cc(-c2nccc(-c3cccc(-c4ccc(CNC[C@@H]5CCC(=O)N5)c(OC)n4)c3Cl)c2Cl)cc(C)c1CN(C)C[C@H](C)O [Compound 118, (S)-5-((((6-(2-chloro-3-(3-chloro-2-(4-((((S)-2-hydroxypropyl)(methyl)amino)methyl)-3-methoxy-5-methylphenyl)pyridin-4-yl)phenyl)-2-methoxypyridin-3-yl)methyl)amino)methyl)pyrrolidin-2-one]	1.6	44.1
COc1nc(-c2ccnc(-c3cccc4c3CC[C@@H]4Oc3nc(OC)c(CNC[C@H](C)O)cc3C(F)(F)F)c2Cl)ccc1CNC[C@@H]1CCC(=O)N1 [Compound 128, (S)-5-((((3′-chloro-2′-((S)-1-((5-((((S)-2-hydroxypropyl)amino)methyl)-6-methoxy-3-(trifluoromethyl)pyridin-2-yl)oxy)-2,3-dihydro-1H-inden-4-yl)-6-methoxy-[2,4′-bipyridin]-5-yl)methyl)amino)methyl)pyrrolidin-2-one]	0.542	9.11
COc1nc(-c2ccnc(-c3cccc4c3CC[C@@H]4Oc3nc(OC)c(CNC4(C(=O)O)CC4)cc3C(F)(F)F)c2Cl)ccc1CNC[C@@H]1CCC(=O)N1 [Compound 129, 1-(((6-(((S)-4-(3′-chloro-6-methoxy-5-(((((S)-5-oxopyrrolidin-2-yl)methyl)amino)methyl)-[2,4′-bipyridin]-2′-yl)-2,3-dihydro-1H-inden-1-yl)oxy)-2-methoxy-5-(trifluoromethyl)pyridin-3-yl)methyl)amino)cyclopropane-1-carboxylic acid]	0.305	16.4
COc1cc(-c2nccc(-c3cccc(-c4ccc(CNC[C@@H]5CCC(=O)N5)c(OC)n4)c3Cl)c2Cl)ccc1CN[C@@H](C)C(=O)O [Compound 130, (4-(3-chloro-4-(2-chloro-3-(6-methoxy-5-(((((S)-5-oxopyrrolidin-2-yl)methyl)amino)methyl)pyridin-2-yl)phenyl)pyridin-2-yl)-2-methoxybenzyl)-L-alanine]	0.209	158
COc1cc(-c2nccc(-c3cccc(-c4cc(F)c(CNC[C@@H]5CCC(=O)N5)c(OC)n4)c3Cl)c2Cl)cc2c1CN(C[C@@H](C)O)CC2 [Compound 131, (S)-5-((((6-(2-chloro-3-(3-chloro-2-(2-((R)-2-hydroxypropyl)-8-methoxy-1,2,3,4-tetrahydroisoquinolin-6-yl)pyridin-4-yl)phenyl)-4-fluoro-2-methoxypyridin-3-yl)methyl)amino)methyl)pyrrolidin-2-one]	0.662	35.4
COc1cc(-c2nccc(-c3cccc(-c4cc(F)c(CNC[C@@H]5CCC(=O)N5)c(OC)n4)c3Cl)c2Cl)cc2c1CN(CCO)CC2 [Compound 132, (S)-5-((((6-(2-chloro-3-(3-chloro-2-(2-(2-hydroxyethyl)-8-methoxy-1,2,3,4-tetrahydroisoquinolin-6-yl)pyridin-4-yl)phenyl)-4-fluoro-2-methoxypyridin-3-yl)methyl)amino)methyl)pyrrolidin-2-one]	0.408	51.2
COc1cc(-c2nccc(-c3cccc(-c4ccc(CNC[C@@H]5CCC(=O)N5)c(OC)n4)c3Cl)c2Cl)ccc1CNC1(C(=O)OC(C)C)CC1 [Compound 135, isopropyl (S)-1-((4-(3-chloro-4-(2-chloro-3-(6-methoxy-5-((((5-oxopyrrolidin-2-yl)methyl)amino)methyl)pyridin-2-yl)phenyl)pyridin-2-yl)-2-methoxybenzyl)amino)cyclopropane-1-carboxylate]	31.2	≥ 10000
CNCc1ccc(-c2nccc(-c3cccc(-c4ccc(CNC)c(OC)n4)c3Cl)c2Cl)cc1OC [Compound 136, 1-(6-(2-chloro-3-(3-chloro-2-(3-methoxy-4-((methylamino)methyl)phenyl)pyridin-4-yl)phenyl)-2methoxypyridin-3-yl)-N-methylmethanamine]	0.708	16.3
COc1nc(-c2cccc(-c3ccnc(-c4ccc5c6c(n(C)c5c4)CCNC6)c3Cl)c2Cl)ccc1CNC[C@@H]1CCC(=O)N1 [Compound 141, (S)-5-((((6-(2-chloro-3-(3-chloro-2-(5-methyl-2,3,4,5-tetrahydro-1H-pyrido[4,3-b]indol-7-yl)pyridin-4-yl)phenyl)-2-methoxypyridin-3-yl)methyl)amino)methyl)pyrrolidin-2-one]	0.826	≥ 10000
COc1nc(-c2cccc(-c3ccnc(-c4ccc5c(c4)CN(CCNC[C@@H]4CCC(=O)N4)C5=O)c3Cl)c2Cl)ccc1CNC[C@H](C)O [Compound 142, 5-(3-chloro-4-(2-chloro-3-(5-((((S)-2-hydroxypropyl)amino)methyl)-6-methoxypyridin-2-yl)phenyl)pyridin-2-yl)-2-(2-((((S)-5-oxopyrrolidin-2-yl)methyl)amino)ethyl)isoindolin-1-one]	6.66	3380
COc1nc(-c2cccc(-c3ccnc(-c4ccc5c(c4)CN(CCNC[C@@H]4CCC(=O)N4)C5=O)c3Cl)c2Cl)ccc1CNC1CCN(C(C)=O)CC1 [Compound 143, (S)-5-(4-(3-(5-(((1-acetylpiperidin-4-yl)amino)methyl)-6-methoxypyridin-2-yl)-2-chlorophenyl)-3-chloropyridin-2-yl)-2-(2-(((5-oxopyrrolidin-2-yl)methyl)amino)ethyl)isoindolin-1-one]	3.94	5440
COc1nc(-c2cccc(-c3ccnc(-c4ccc5c(c4)CN(CCNC[C@@H]4CCC(=O)N4)C5=O)c3Cl)c2Cl)ccc1CN1CC2(C1)CN(C(C)=O)C2 [Compound 144, (S)-5-(4-(3-(5-((6-acetyl-2,6-diazaspiro[3.3]heptan-2-yl)methyl)-6-methoxypyridin-2-yl)-2-chlorophenyl)-3-chloropyridin-2-yl)-2-(2-(((5-oxopyrrolidin-2-yl)methyl)amino)ethyl)isoindolin-1-one]	2.68	≥ 10000
